In US20090143279A1 (priority 2007, published 2009):
Like-named read-outs stand apart in the source and are kept apart here.

Experiments:
[1] = test system: cytochrome c; type: cell-based, mouse
[2] = test system: C2C12 myotubes
[3] = test system: OXPHOS gene expression; type: cell-based, mouse
[4] = test system: mitochondrial membrane potential; type: cell-based, mouse
[5] = test system: reactive oxygen species; type: cell-based, mouse
[6] = test system: nuOXPHOS transcripts; type: cell-based, mouse
[7] = test system: mtOXPHOS transcripts; type: cell-based, mouse
[8] = test system: cellular dehydrogenase activity
[9] = composite Z-score vs DMSO, Conc 20 μM
[10] = normalized composite Z-score vs mock-treated (DMSO) wells, Conc 20 μM
[11] = composite Z-score vs mock-treated (DMSO) wells, Conc 20 μM
[12] = Conc 20 μM, normalized score vs mock-treated (DMSO) wells
[13] = composite Z-score vs DMSO, Conc 4.42 μM

SMILES: Cn1c(=O)[nH]c(=O)c2[nH]cnc21 [3-methylxanthine]
- cyt c [1, 9]: 0.692
- Viability [2, 9]: 0.036
- GE-HTS [3, 9]: −1.241
- ΔΨm [4, 9]: −0.149
- ROS [5, 9]: 0.472
- nucOX [6, 9]: −1.286
- mitoOX [7, 9]: −0.856
- MTT [8, 9]: −0.859

SMILES: CC1CCC23CCC4(C)C5(C)CCC6C(C)(C)C(=O)CCC6(C)C5CCC4(OC2=O)C3C1C (stereo not shown) [3-oxoursan (28-13)olide]
- cyt c [1, 10]: 0.991
- Viability [2, 10]: 0.638
- GE-HTS [3, 10]: −1.322
- ΔΨm [4, 10]: −0.332
- ROS [5, 10]: 1.010
- nucOX [6, 10]: −1.228
- mitoOX [7, 10]: −1.205
- MTT [8, 10]: −1.871

SMILES: CC1C(=NO)CC2CC1C2(C)C (stereo not shown) [3-pinanone oxime]
- cyt c [1, 10]: 0.014
- Viability [2, 10]: −0.344
- GE-HTS [3, 10]: 0.141
- ΔΨm [4, 10]: −0.415
- ROS [5, 10]: −0.152
- nucOX [6, 10]: 0.031
- mitoOX [7, 10]: 0.386
- MTT [8, 10]: −0.210

SMILES: CC(=O)c1ccc(O)c(CC=C(C)C)c1 [3-prenyl-4-hydroxyacetophenone]
- cyt c [1, 9]: 0.220
- Viability [2, 9]: −0.696
- GE-HTS [3, 9]: 0.607
- ΔΨm [4, 9]: −0.010
- ROS [5, 9]: 2.418
- nucOX [6, 9]: 0.477
- mitoOX [7, 9]: 0.804
- MTT [8, 9]: −1.066

SMILES: CC(=O)O[C@@H]1CC[C@@]2(C)C(C[C@@H](OC(C)=O)[C@@]3(C)C4=CC(=O)O[C@@H](c5ccoc5)[C@]4(C)CCC23)C1(C)C (stereo partly drawn) [3alpha-acetoxydihydrodeoxygedunin]
- cyt c [1, 11]: 0.179
- Viability [2, 11]: 0.781
- GE-HTS [3, 11]: −0.987
- ΔΨm [4, 11]: 1.157
- ROS [5, 11]: 2.371
- nucOX [6, 11]: −1.123
- mitoOX [7, 11]: −0.584
- MTT [8, 11]: −1.653

SMILES: CC(=O)O[C@@H]1CC2C(C)(C)[C@H](O)CC[C@]2(C)C2CC[C@@]3(C)[C@H](c4ccoc4)OC(=O)C4OC43[C@@]21C (stereo partly drawn) [3alpha-hydroxydeoxodihydrogedunin]
- cyt c [1, 10]: 1.091
- Viability [2, 10]: 0.065
- GE-HTS [3, 10]: −0.892
- ΔΨm [4, 10]: −0.061
- ROS [5, 10]: 1.207
- nucOX [6, 10]: −0.832
- mitoOX [7, 10]: −0.857
- MTT [8, 10]: −1.072

SMILES: CC(=O)O[C@H]1CC[C@]2(C)[C@H]3CC[C@@]4(C)[C@H](c5ccoc5)OC(=O)[C@H]5O[C@]54[C@]3(C)[C@H](OC(C)=O)C[C@H]2C1(C)C [3beta-acetoxydeoxodihydrogedunin]
- cyt c [1, 11]: 0.759
- Viability [2, 11]: 0.311
- GE-HTS [3, 11]: −1.016
- ΔΨm [4, 11]: 0.254
- ROS [5, 11]: 0.055
- nucOX [6, 11]: −1.055
- mitoOX [7, 11]: −0.694
- MTT [8, 11]: −0.528

SMILES: CC(=O)O[C@@H]1CC2C(C)(CC[C@H](O)C2(C)C)C2CC[C@]3(C)C(=CC(=O)O[C@H]3c3ccoc3)C21C (stereo partly drawn) [3beta-hydroxydeoxodihydrodeoxygedunin]
- cyt c (composite Z-score) [1, 12]: 0.142
- Viability (composite Z-score) [2, 12]: −1.397
- GE-HTS (composite Z-score) [3, 12]: −0.747
- ΔΨm (composite Z-score) [4, 12]: 1.048
- ROS (composite Z-score) [5, 12]: 1.488
- nucOX (composite Z-score) [6, 12]: −0.849
- mitoOX (composite Z-score) [7, 12]: −0.359
- MTT (composite Z-score) [8, 12]: −0.656

SMILES: CC(=O)OC1CC2C(C)(C)[C@@H](O)CC[C@]2(C)C2CC[C@]3(C)[C@H](c4ccoc4)OC(=O)[C@H]4O[C@]43[C@]12C (stereo partly drawn) [3beta-hydroxydeoxodihydrogedunin]
- cyt c [1, 11]: 0.591
- Viability [2, 11]: −0.364
- GE-HTS [3, 11]: −0.585
- ΔΨm [4, 11]: 0.674
- ROS [5, 11]: 0.170
- nucOX [6, 11]: −0.648
- mitoOX [7, 11]: −0.302
- MTT [8, 11]: −0.540

SMILES: C=CC(C1=CC(=O)C(OC)=CC1=O)c1ccc(OC)cc1 (stereo not shown) [4,4′-dimethoxydalbergione]
- cyt c [1, 11]: −1.432
- Viability [2, 11]: −0.207
- GE-HTS [3, 11]: −0.842
- ΔΨm [4, 11]: −0.993
- ROS [5, 11]: −0.802
- nucOX [6, 11]: −0.677
- mitoOX [7, 11]: −0.975
- MTT [8, 11]: −2.648

SMILES: COc1ccc(-c2cc(=O)c3ccc(OC)cc3o2)cc1 [4,7-dimethoxyflavone]
- cyt c [1, 10]: 0.031
- Viability [2, 10]: −0.067
- GE-HTS [3, 10]: 1.306
- ΔΨm [4, 10]: −0.795
- ROS [5, 10]: 1.067
- nucOX [6, 10]: 1.526
- mitoOX [7, 10]: 0.539
- MTT [8, 10]: −0.472

SMILES: Cc1c(N)c(=O)n(-c2ccccc2)n1C [4-aminoantipyrine]
- cyt c [1, 13]: 0.087
- Viability [2, 13]: 0.530
- GE-HTS [3, 13]: −0.182
- ΔΨm [4, 13]: −4.045
- ROS [5, 13]: 0.564
- nucOX [6, 13]: −0.041
- mitoOX [7, 13]: −0.450
- MTT [8, 13]: −1.470

SMILES: NCCc1ccc(S(=O)(=O)F)cc1 [4-aminoethylbenzenesulfonyl fluoride]
- cyt c [1, 9]: −0.485
- Viability [2, 9]: −0.304
- GE-HTS [3, 9]: −0.016
- ΔΨm [4, 9]: −0.356
- ROS [5, 9]: 1.081
- nucOX [6, 9]: −0.045
- mitoOX [7, 9]: 0.018
- MTT [8, 9]: −1.406

SMILES: C=CC(C1=CC(=O)C(OC)=CC1=O)c1ccc(O)cc1 (stereo not shown) [4-methoxy-4′-hydroxy-dalbergione]
- cyt c [1, 11]: 0.803
- Viability [2, 11]: 1.548
- GE-HTS [3, 11]: −1.401
- ΔΨm [4, 11]: 0.406
- ROS [5, 11]: 0.639
- nucOX [6, 11]: −1.406
- mitoOX [7, 11]: −1.071
- MTT [8, 11]: −0.877

SMILES: COc1ccccc1-c1cc(=O)c2c(OC)cccc2o1 [5,2′-dimethoxyflavone]
- cyt c [1, 10]: 1.046
- Viability [2, 10]: −0.228
- GE-HTS [3, 10]: −0.862
- ΔΨm [4, 10]: 1.002
- ROS [5, 10]: 0.645
- nucOX [6, 10]: −0.881
- mitoOX [7, 10]: −0.607
- MTT [8, 10]: −0.219

SMILES: C=C1CCC2C(CC2(C)C)C(=C)CCC1=NO (stereo not shown) [5-hydroxyiminoisocaryophyllene]
- cyt c [1, 11]: 0.117
- Viability [2, 11]: 0.181
- GE-HTS [3, 11]: −0.023
- ΔΨm [4, 11]: 0.413
- ROS [5, 11]: 0.922
- nucOX [6, 11]: −0.273
- mitoOX [7, 11]: 0.421
- MTT [8, 11]: 1.325

SMILES: O=C(O)c1cc([N+](=O)[O-])ccc1NCCCc1ccccc1 [5-nitro-2-phenylpropylaminobenzoic acid]
- cyt c (composite Z-score vs DMSO) [1]: 0.412
- Viability (composite Z-score vs DMSO) [2]: −0.939
- GE-HTS (composite Z-score vs DMSO) [3]: 0.038
- ΔΨm (composite Z-score vs DMSO) [4]: −0.937
- ROS (composite Z-score vs DMSO) [5]: 0.872
- nucOX (composite Z-score vs DMSO) [6]: 0.089
- mitoOX (composite Z-score vs DMSO) [7]: −0.075
- MTT (composite Z-score vs DMSO) [8]: −0.786

SMILES: C[C@]12CC[C@H](O)C[C@@H]1CC[C@@H]1[C@@H]2CC[C@]2(C)[C@@H](O)CC[C@@H]12 [5alpha-androstan-3beta,17beta-diol]
- cyt c [1, 9]: 0.280
- Viability [2, 9]: −0.204
- GE-HTS [3, 9]: 0.123
- ΔΨm [4, 9]: −1.116
- ROS [5, 9]: 0.607
- nucOX [6, 9]: 0.059
- mitoOX [7, 9]: 0.270
- MTT [8, 9]: −0.454

SMILES: CC(C)CCC[C@@H](C)[C@H]1CC[C@H]2[C@@H]3CC(=O)[C@H]4C[C@@H](O)CC[C@]4(C)[C@H]3CC[C@]12C [5alpha-cholestan-3beta-ol-6-one]
- cyt c [1, 9]: 1.006
- Viability [2, 9]: −0.430
- GE-HTS [3, 9]: −0.731
- ΔΨm [4, 9]: 0.479
- ROS [5, 9]: 0.397
- nucOX [6, 9]: −0.603
- mitoOX [7, 9]: −0.862
- MTT [8, 9]: 0.811

SMILES: COc1cccc(-c2cc(=O)c3cc(OC)ccc3o2)c1 [6,3′-dimethoxyflavone]
- cyt c [1, 11]: 0.245
- Viability [2, 11]: 0.413
- GE-HTS [3, 11]: 0.072
- ΔΨm [4, 11]: 1.915
- ROS [5, 11]: −0.882
- nucOX [6, 11]: 0.087
- mitoOX [7, 11]: −0.021
- MTT [8, 11]: −1.534
